The source of these data is ChEMBL document CHEMBL5614367, “Hydroxamic acid hybrids: Histone deacetylase inhibitors with anticancer therapeutic potency” (Eur J Med Chem, 2023).

The test system of one data set is K562. Put plainly: Antiproliferative activity against human K562 cells. It counts as functional, cell-based.
The subject of another data set is MOLT-4. Put plainly: Antiproliferative activity against human MOLT-4 cells. It counts as functional, cell-based.
The subject of a further data set is TALL-1. Put plainly: Antiproliferative activity against human TALL-1 cells. It counts as functional, cell-based.
In a further data set the test system is HL-60. Nature of the data set: Antiproliferative activity against human HL-60 cells. The format is functional, cell-based.
For another data set, the system named is Jurkat. Put plainly: Antiproliferative activity against human Jurkat cells. The format is functional, cell-based.
The test system of another data set is CCRF-HSB-2. Put plainly: Antiproliferative activity against human CCRF-HSB-2 cells. It counts as functional, cell-based.
The target in data set [1] is T1, Protein deacetylase HDAC6 (Homo sapiens, UniProt Q9UBN7).
T1 sequence (Q9UBN7 whole entry): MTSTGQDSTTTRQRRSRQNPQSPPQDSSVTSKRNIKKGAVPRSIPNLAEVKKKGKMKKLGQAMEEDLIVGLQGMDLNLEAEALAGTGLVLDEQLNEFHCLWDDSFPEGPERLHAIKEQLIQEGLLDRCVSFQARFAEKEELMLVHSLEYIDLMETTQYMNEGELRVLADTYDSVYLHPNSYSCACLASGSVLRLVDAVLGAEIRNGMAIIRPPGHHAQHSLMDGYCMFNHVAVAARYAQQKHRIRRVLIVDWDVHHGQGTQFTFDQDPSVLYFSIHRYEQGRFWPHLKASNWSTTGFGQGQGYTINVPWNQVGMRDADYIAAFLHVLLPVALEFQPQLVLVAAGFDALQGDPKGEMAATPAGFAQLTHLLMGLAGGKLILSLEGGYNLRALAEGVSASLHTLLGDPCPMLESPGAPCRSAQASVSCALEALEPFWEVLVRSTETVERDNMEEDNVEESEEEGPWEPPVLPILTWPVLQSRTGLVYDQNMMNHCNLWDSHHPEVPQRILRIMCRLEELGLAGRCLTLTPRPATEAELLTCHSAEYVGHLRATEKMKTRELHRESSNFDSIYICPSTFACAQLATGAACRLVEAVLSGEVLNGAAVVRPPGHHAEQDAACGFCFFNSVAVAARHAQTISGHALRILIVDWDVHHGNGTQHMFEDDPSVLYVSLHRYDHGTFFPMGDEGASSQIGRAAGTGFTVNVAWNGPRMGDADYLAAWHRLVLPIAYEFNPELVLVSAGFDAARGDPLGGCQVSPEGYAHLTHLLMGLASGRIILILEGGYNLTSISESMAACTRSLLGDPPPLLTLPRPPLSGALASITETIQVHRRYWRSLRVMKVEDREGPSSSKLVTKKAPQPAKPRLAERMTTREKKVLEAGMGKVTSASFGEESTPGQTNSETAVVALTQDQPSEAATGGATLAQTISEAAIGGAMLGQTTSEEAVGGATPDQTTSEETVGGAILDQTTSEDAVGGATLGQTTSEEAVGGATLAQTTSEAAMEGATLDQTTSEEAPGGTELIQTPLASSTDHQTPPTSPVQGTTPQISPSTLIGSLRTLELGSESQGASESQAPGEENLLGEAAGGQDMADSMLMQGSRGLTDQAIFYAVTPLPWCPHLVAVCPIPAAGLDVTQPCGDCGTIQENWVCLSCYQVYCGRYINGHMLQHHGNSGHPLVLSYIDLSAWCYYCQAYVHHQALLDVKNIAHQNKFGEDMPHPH
Put plainly: Inhibition of HDAC6 (unknown origin).

Another data set deals with HT-29. Put plainly: Antiproliferative activity against human HT-29 cells assessed as reduction in cell growth by MTT assay. It counts as functional, cell-based.
Another data set relates to SH-SY5Y. Nature of the data set: Antiproliferative activity against human SH-SY5Y cells by MTT assay. It counts as functional, cell-based.
The target in data set [2] is T1, Protein deacetylase HDAC6. Put plainly: Inhibition of HDAC6 (unknown origin) using ZMAL (Z-Lys(Ac)-AMC as fluorogenic substrate pre-incubated for 15 mins followed by susbtrate addition and measured for 45 mins by fluorescence based analysis.
Data set [3] concerns CAPAN-1. Nature of the data set: Antitumor activity against human CAPAN-1 cells xenografted in mouse assessed as tumor growth inhibition at 50 mg/kg, ip relative to control. It counts as functional. As to conditions: read-out: TGI.
The subject of data set [4] is CAPAN-1. Nature of the data set: Antitumor activity against human CAPAN-1 cells xenografted in mouse assessed as tumor growth inhibition at 50 mg/kg, ip in presence of vorinostat relative to control. The format is functional. As to conditions: read-out: TGI.
Data set [5] is described as follows: Metabolic stability in human liver microsomes assessed as half life incubated for 60 mins in presence of NADPH by LC-MS/MS analysis. The format is ADME, Microsome.
A further data set concerns U-87 MG. Nature of the data set: Antitumor activity against human U87 cells xenografted in mouse assessed as tumor growth inhibition at 20 mg/kg, po relative to control. The format is functional, U-87MG ATCC. As to conditions: read-out: TGI.
In a further data set the test system is A549. Nature of the data set: Antiproliferative activity against human A549 cells assessed as inhibition of cell growth measured after 72 hrs by MTT assay. Particulars: A549, 72 h, pooled result: one value given for 8 cell lines, strains, targets or settings. The format is functional, cell-based.
Data set [6] deals with T1, Protein deacetylase HDAC6. Nature of the data set: Inhibition of HDAC6 (unknown origin) using 6-carboxyfluorescein peptide as substrate incubated for 18 hrs by fluorescence based assay.
Data set [7] addresses T2, Histone deacetylase 2 (Homo sapiens, UniProt Q92769). Put plainly: Inhibition of HDAC2 (unknown origin) using 6-carboxyfluorescein peptide as substrate incubated for 18 hrs by fluorescence based assay.
Data set [8] in a line: Metabolic stability in mouse liver microsomes assessed as half life incubated for 60 mins in presence of NADPH by LC-MS/MS analysis. It counts as ADME, Microsome.
Data set [9] concerns the target T3, Histone deacetylase 1 (Homo sapiens, UniProt Q13547). Put plainly: Inhibition of HDAC1 (unknown origin) using 6-carboxyfluorescein peptide as substrate incubated for 18 hrs by fluorescence based assay.
The nature of data set [10]: Oral bioavailability in female […] at 10 mg/kg. The format is ADME, organism-based. Particulars: in vivo.
Data set [11] in a line: Metabolic stability in rat liver microsomes assessed as half life incubated for 60 mins in presence of NADPH by LC-MS/MS analysis. The format is ADME, Microsome.
Data set [12] deals with CAPAN-1. Put plainly: Potency index, ratio of vorinostat IC50 to test compound IC50 for antiproliferative activity against human CAPAN-1 cells. It counts as functional.
Data set [13] addresses T3, Histone deacetylase 1. Nature of the data set: Inhibition of HDAC1 (unknown origin).
The test system of data set [14] is CAPAN-1. Put plainly: Antiproliferative activity against human CAPAN-1 cells. The format is functional, cell-based.
Data set [15] has as its target Bromodomain-containing protein 4 (Homo sapiens, UniProt O60885). Put plainly: Inhibition of BRD4 (unknown origin).
Data set [16] concerns CAPAN-1. Put plainly: Antitumor activity against human CAPAN-1 cells xenografted in mouse assessed as tumor growth inhibition at 100 mg/kg, ip relative to control. As to conditions: read-out: TGI. It counts as functional.
Data set [17] in a line: Antiproliferative activity against human BEAS-2B cells assessed as reduction in cell viability incubated for 48 hrs by MTT assay. The format is toxicity, cell-based.
Another data set deals with MDA-MB-231. Nature of the data set: Antitumor activity against human MDA-MB-231 cells in nude mouse assessed as tumor growth inhibition at 20 mg/kg, ip administered once daily for 30 days relative to control. As to conditions: MDA-MB-231, 720 h, time 30 day, read-out: TGI. It counts as functional.
For data set [18], the target named is T2, Histone deacetylase 2. Nature of the data set: Inhibition of HDAC2 (unknown origin) using Boc-Lys-(Ac)-AMC as substrate incubated for 60 mins by fluorescence based analysis.
Data set [19] is described as follows: Antiproliferative activity against human MCF-10F cells assessed as reduction in cell viability incubated for 48 hrs by MTT assay. It counts as toxicity, cell-based.
The nature of data set [20]: Antiproliferative activity against human MCF-10A cells assessed as reduction in cell viability incubated for 48 hrs by MTT assay. The format is toxicity, cell-based.

T3 sequence (Q13547 whole entry): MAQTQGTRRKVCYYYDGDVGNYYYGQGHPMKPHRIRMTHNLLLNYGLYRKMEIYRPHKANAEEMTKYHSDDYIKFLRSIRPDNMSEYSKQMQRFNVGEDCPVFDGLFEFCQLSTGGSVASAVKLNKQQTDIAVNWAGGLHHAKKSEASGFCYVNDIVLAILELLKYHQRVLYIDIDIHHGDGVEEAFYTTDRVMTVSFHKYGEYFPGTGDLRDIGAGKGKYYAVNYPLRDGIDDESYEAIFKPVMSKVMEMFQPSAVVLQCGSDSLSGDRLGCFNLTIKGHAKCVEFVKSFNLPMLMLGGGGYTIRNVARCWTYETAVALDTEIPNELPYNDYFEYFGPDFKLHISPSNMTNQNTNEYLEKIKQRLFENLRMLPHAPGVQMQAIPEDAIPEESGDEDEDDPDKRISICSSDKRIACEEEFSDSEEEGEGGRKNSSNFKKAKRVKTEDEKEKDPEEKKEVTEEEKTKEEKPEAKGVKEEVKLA
T2 sequence (Q92769 whole entry): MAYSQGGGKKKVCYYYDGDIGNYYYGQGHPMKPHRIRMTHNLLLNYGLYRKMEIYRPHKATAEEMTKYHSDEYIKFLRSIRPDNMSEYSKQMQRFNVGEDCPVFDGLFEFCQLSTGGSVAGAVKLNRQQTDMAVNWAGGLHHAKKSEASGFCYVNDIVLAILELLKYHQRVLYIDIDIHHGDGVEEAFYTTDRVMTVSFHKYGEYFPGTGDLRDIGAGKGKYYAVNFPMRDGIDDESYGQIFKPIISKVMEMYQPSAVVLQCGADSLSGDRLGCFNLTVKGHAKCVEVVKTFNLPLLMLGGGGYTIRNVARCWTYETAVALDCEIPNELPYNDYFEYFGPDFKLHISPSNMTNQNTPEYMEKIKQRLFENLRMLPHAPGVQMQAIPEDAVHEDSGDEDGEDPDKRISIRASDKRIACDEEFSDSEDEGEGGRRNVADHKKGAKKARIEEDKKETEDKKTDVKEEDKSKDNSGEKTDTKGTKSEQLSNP

For `O=C(NO)c1ccc(CN(Cc2nnnn2Cc2ccccc2)C(=O)c2ccccc2C(F)(F)F)cc1`, the 50% inhibitory concentration (IC50) in the data set with K562, with MOLT-4, in the data set on TALL-1, in the data set with HL-60, in the data set with Jurkat and with CCRF-HSB-2 was 22.5 µM each time. The molecule also displayed an IC50 in [1] of 0.06 µM.

As for `Cc1nc(C)c(C(=O)Nc2cccc(C(=O)NO)c2)nc1C`, the IC50 is 4.99 µM in the data set on HT-29, 7.63 µM in the data set on SH-SY5Y and 0.169 µM in data set [2].

On to `Cc1sc2c(c1C)C(c1ccc(Cl)cc1)=N[C@@H](CC(=O)OC(C)(C)C)c1nnc(C)n1-2`, for which the inhibition in vivo at 50 mg/kg in the data set with CAPAN-1 [3] is 41%; in the data set on CAPAN-1 [4] it was 57%.

In the case of `COc1cc(/C=C/C(=O)CC(=O)/C=C/c2ccc(/C=C/C(=O)NO)cc2)ccc1O`, the half-life was found to be 91.6 min in [5], 32.7 min in data set [8] and 40.7 min in [11]. Besides, the inhibition in vivo at 20 mg/kg with U-87 MG is 52.1%. The half-inhibitory concentration (IC50) worked out at 5.33 µM in the data set with A549, 0.00038 µM in data set [6], 0.00038 µM against Histone deacetylase 2 [7] and 0.00038 µM against Histone deacetylase 1 [9]. Further, the bioavailability in [10] turned out to be 40.2%.

As to `CC1=C(C)C2C(c3ccc(Cl)cc3)=N[C@@H](CC(=O)Nc3ccc(C(=O)NO)cc3)c3nnc(C)n3C2S1` (some centres not stated), the “Ratio IC50” value with CAPAN-1 [12] was 36. For the same molecule, the values for the IC50 (against Histone deacetylase 1 [13]; in the data set with CAPAN-1 [14]; in [15]) were 0.021 µM, 0.15 µM and 0.011 µM, respectively. For the same molecule, the inhibition in vivo at 50 mg/kg in the data set with CAPAN-1 [3] came out at 69%. In addition, in the data set with CAPAN-1 [16], the inhibition in vivo at 100 mg/kg is 87.7%.

For `O=C(CCCCCC(=O)N(Cc1ccc(Br)s1)c1ccc(OCCN2CCOCC2)cc1)NO`, the IC50 at 48 h in data set [17], in data set [19] and in data set [20] was above 100 µM in each case. Moreover, in the data set on MDA-MB-231, the inhibition in vivo at 20 mg/kg was around 95%. The molecule also came in with a concentration for half-maximal inhibition (IC50) on Histone deacetylase 2 [18] of 0.00322 µM.
